The test system of data set [1] is Chenopodium album. The experiment in a line: Upland field foliage treatment (Test Example 1). The following applies: foliage treatment 14th day after sowing, wettable powder, 1 kg active ingredient per hectare, evaluated 21st day after application. The class given is in vivo. An outline of the steps:
(§1)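 Weeds and crops were sown in upland soil under about 1 cm cover, and a wettable powder diluted in water was sprayed on the foliage 14 days after sowing at 1 kg active ingredient per hectare. Scoring was done 21 days after application on an index scale, where higher weed scores mean stronger herbicidal effect and lower crop scores mean greater crop safety.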

The test system of data set [2] is Digitaria adscendens. The experiment in a line: Upland field foliage treatment (Test Example 1). The class given is in vivo. The following applies: foliage treatment 14th day after sowing, wettable powder, 1 kg active ingredient per hectare, evaluated 21st day after application. An outline of the steps: as §1
The test system of data set [3] is Setaria viridis. The experiment in a line: Upland field foliage treatment (Test Example 1). The class given is in vivo. To be noted: foliage treatment 14th day after sowing, wettable powder, 1 kg active ingredient per hectare, evaluated 21st day after application. An outline of the steps: as §1
Data set [4] has as its system Stellaria media. Briefly: Upland field foliage treatment (Test Example 1). The class given is in vivo. To be noted: foliage treatment 14th day after sowing, wettable powder, 1 kg active ingredient per hectare, evaluated 21st day after application. The method in brief:
as §1

The subject of data set [5] is soybean (Glycine max). Briefly: Upland field foliage treatment (Test Example 1), crop. The class given is in vivo. The following applies: foliage treatment 14th day after sowing, 1 kg active ingredient per hectare, evaluated 21st day, lower index = higher safety. An outline of the steps:
as §1

The subject of data set [6] is wheat (Triticum aestivum). The data set is described as above. The following applies: foliage treatment 14th day after sowing, 1 kg active ingredient per hectare, evaluated 21st day, lower index = higher safety. The class given is in vivo. The method in brief: as §1
Data set [7] concerns Chenopodium album. Briefly: Upland soil treatment (Test Example 2). The class given is in vivo. To be noted: soil surface treatment next day after sowing, wettable powder, 1 kg active ingredient per hectare, evaluated 21st day after application. An outline of the steps:
(§2)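 Scored 21 days post-application on an index scale where higher values mean greater herbicidal effect on weeds and lower values mean greater crop safety. Treatment was a water-diluted wettable powder sprayed evenly onto the soil surface at 1 kg active ingredient per hectare, one day after seeding.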

Data set [8] concerns Digitaria adscendens. Briefly: Upland soil treatment (Test Example 2). The class given is in vivo. To be noted: soil surface treatment next day after sowing, wettable powder, 1 kg active ingredient per hectare, evaluated 21st day after application. The method in brief: as §2
The subject of data set [9] is Setaria viridis. The experiment in a line: Upland soil treatment (Test Example 2). To be noted: soil surface treatment next day after sowing, wettable powder, 1 kg active ingredient per hectare, evaluated 21st day after application. The class given is in vivo. An outline of the steps: as §2
The subject of data set [10] is Stellaria media. Briefly: Upland soil treatment (Test Example 2). The class given is in vivo. The following applies: soil surface treatment next day after sowing, wettable powder, 1 kg active ingredient per hectare, evaluated 21st day after application. The method in brief: as §2
The test system of data set [11] is soybean (Glycine max). The experiment in a line: Upland soil treatment (Test Example 2), crop. The following applies: soil surface treatment next day after sowing, 1 kg active ingredient per hectare, evaluated 21st day, lower index = higher safety. The class given is in vivo. The method in brief: as §2
For data set [12], the system named is wheat (Triticum aestivum). Briefly: Upland soil treatment (Test Example 2), crop. The class given is in vivo. The following applies: soil surface treatment next day after sowing, 1 kg active ingredient per hectare, evaluated 21st day, lower index = higher safety. An outline of the steps:
as §2

The next data set has as its system Echinochloa spp. Briefly: Paddy field treatment (Test Example 3). The class given is in vivo, Echinochloa crusgalli. To be noted: paddy pot, submerged 4 cm, dropped on water surface 10th day after transplantation, 1 kg active ingredient per hectare, evaluated 21st day. An outline of the steps:
(§3)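 Weeds sown in puddled paddy soil under 4 cm water, with two-leaf Koshihikari rice transplanted at 3 cm depth. On day 10 after transplanting, wettable powder applied to the water surface at 1 kg active ingredient per hectare. Herbicidal effect and crop safety scored on an index 21 days later.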

A further data set relates to Ammannia multiflora. The experiment in a line: Paddy field treatment (Test Example 3). The class given is in vivo. To be noted: paddy pot, submerged 4 cm, dropped on water surface 10th day after transplantation, 1 kg active ingredient per hectare, evaluated 21st day. An outline of the steps: as §3
The subject of another data set is Monochoria vaginalis. The experiment in a line: Paddy field treatment (Test Example 3). The class given is in vivo. To be noted: paddy pot, submerged 4 cm, dropped on water surface 10th day after transplantation, 1 kg active ingredient per hectare, evaluated 21st day. The method in brief: as §3
The next data set has as its system Scirpus juncoides. Briefly: Paddy field treatment (Test Example 3). The class given is in vivo. The following applies: paddy pot, submerged 4 cm, dropped on water surface 10th day after transplantation, 1 kg active ingredient per hectare, evaluated 21st day. An outline of the steps:
as §3

Data set [13] relates to rice (Oryza sative, variety: Koshihikari). Briefly: Paddy field treatment (Test Example 3), crop. The class given is in vivo, Oryza sativa. The following applies: transplanted rice two-leaf period, water surface treatment 10th day after transplantation, 1 kg active ingredient per hectare, evaluated 21st day, lower index = higher safety. The method in brief: as §3

Turning to `COC=C(Cn1nc(-c2ccccc2)c(C)c1Cl)C(=O)OC` [Compound 45], the “Herbicidal activity Chenopodium album” value is 5 (herbicidal effect of not less than 90% by weight) in the data set on Chenopodium album [1]; 4 (herbicidal effect of not less than 70% by weight and less than 90% by weight) in the data set with Chenopodium album [7]. The “Herbicidal activity Digitaria adscendens” value is 4 (herbicidal effect of not less than 70% by weight and less than 90% by weight) in the data set with Digitaria adscendens [2]; 4 (herbicidal effect of not less than 70% by weight and less than 90% by weight) in the data set with Digitaria adscendens [8]. Also, the “Herbicidal activity Setaria viridis” value is 4 (herbicidal effect of not less than 70% by weight and less than 90% by weight) in the data set on Setaria viridis [3]; 4 (herbicidal effect of not less than 70% by weight and less than 90% by weight) with Setaria viridis [9]. In addition, the “Herbicidal activity Stellaria media” value in the data set with Stellaria media [4] was 5 (herbicidal effect of not less than 90% by weight); in the data set with Stellaria media [10] it was 4 (herbicidal effect of not less than 70% by weight and less than 90% by weight). For the same molecule, the “Herbicidal activity Glycine max” value was 1 (herbicidal effect of not less than 10% by weight and less than 30% by weight) with soybean (Glycine max) [5]; 0 (herbicidal effect of not less than 0% by weight and less than 10% by weight) in the data set with soybean (Glycine max) [11]. Besides, the “Herbicidal activity Triticum aestivum” value is 0 (herbicidal effect of not less than 0% by weight and less than 10% by weight) in data set [6]; 0 (herbicidal effect of not less than 0% by weight and less than 10% by weight) in [12]. In addition, in the data set on Echinochloa spp., the “Herbicidal activity Echinochloa spp.” value was 4 (herbicidal effect of not less than 70% by weight and less than 90% by weight). In addition, the “Herbicidal activity Ammannia multiflora” value in the data set with Ammannia multiflora was 4 (herbicidal effect of not less than 70% by weight and less than 90% by weight). Also, in the data set with Monochoria vaginalis, the “Herbicidal activity Monochoria vaginalis” value is 5 (herbicidal effect of not less than 90% by weight). In addition, the “Herbicidal activity Scirpus juncoides” value in the data set on Scirpus juncoides is 4 (herbicidal effect of not less than 70% by weight and less than 90% by weight). In data set [13], the “Herbicidal activity Oryza sativa” value was 0 (herbicidal effect of not less than 0% by weight and less than 10% by weight).
For `COC=C(Cn1nc(-c2cccc(Cl)c2Cl)c(Br)c1C)C(=O)OC` [Compound 29], the “Herbicidal activity Chenopodium album” value was 5 (herbicidal effect of not less than 90% by weight) with Chenopodium album [1]; 4 (herbicidal effect of not less than 70% by weight and less than 90% by weight) in the data set with Chenopodium album [7]. The “Herbicidal activity Digitaria adscendens” value in the data set on Digitaria adscendens [2] was 5 (herbicidal effect of not less than 90% by weight); with Digitaria adscendens [8] it was 4 (herbicidal effect of not less than 70% by weight and less than 90% by weight). Moreover, the “Herbicidal activity Setaria viridis” value is 4 (herbicidal effect of not less than 70% by weight and less than 90% by weight) in the data set on Setaria viridis [3]; 4 (herbicidal effect of not less than 70% by weight and less than 90% by weight) in the data set on Setaria viridis [9]. Also, the “Herbicidal activity Stellaria media” value is 5 (herbicidal effect of not less than 90% by weight) in the data set on Stellaria media [4]; 4 (herbicidal effect of not less than 70% by weight and less than 90% by weight) in the data set with Stellaria media [10]. Besides, the “Herbicidal activity Glycine max” value was 1 (herbicidal effect of not less than 10% by weight and less than 30% by weight) in the data set with soybean (Glycine max) [5]; 0 (herbicidal effect of not less than 0% by weight and less than 10% by weight) in the data set with soybean (Glycine max) [11]. In addition, the “Herbicidal activity Triticum aestivum” value was 1 (herbicidal effect of not less than 10% by weight and less than 30% by weight) in data set [6]; 0 (herbicidal effect of not less than 0% by weight and less than 10% by weight) in [12]. Besides, in the data set with Echinochloa spp., the “Herbicidal activity Echinochloa spp.” value is 4 (herbicidal effect of not less than 70% by weight and less than 90% by weight). Also, in the data set on Ammannia multiflora, the “Herbicidal activity Ammannia multiflora” value is on record as 5 (herbicidal effect of not less than 90% by weight). Moreover, the “Herbicidal activity Monochoria vaginalis” value in the data set on Monochoria vaginalis is listed as 5 (herbicidal effect of not less than 90% by weight). Besides, the “Herbicidal activity Scirpus juncoides” value with Scirpus juncoides is 4 (herbicidal effect of not less than 70% by weight and less than 90% by weight). Besides, the “Herbicidal activity Oryza sativa” value in data set [13] was 0 (herbicidal effect of not less than 0% by weight and less than 10% by weight).
As to `COC=C(Cn1nc(-c2cc(Cl)cc(Cl)c2)cc1C)C(=O)OC` [Compound 11], the “Herbicidal activity Chenopodium album” value with Chenopodium album [1] is 4 (herbicidal effect of not less than 70% by weight and less than 90% by weight); in the data set on Chenopodium album [7], 4 (herbicidal effect of not less than 70% by weight and less than 90% by weight). For the same molecule, the “Herbicidal activity Digitaria adscendens” value was 4 (herbicidal effect of not less than 70% by weight and less than 90% by weight) in the data set with Digitaria adscendens [2]; 4 (herbicidal effect of not less than 70% by weight and less than 90% by weight) in the data set with Digitaria adscendens [8]. The “Herbicidal activity Setaria viridis” value in the data set on Setaria viridis [3] was 4 (herbicidal effect of not less than 70% by weight and less than 90% by weight); with Setaria viridis [9], 4 (herbicidal effect of not less than 70% by weight and less than 90% by weight). The “Herbicidal activity Stellaria media” value in the data set with Stellaria media [4] was 4 (herbicidal effect of not less than 70% by weight and less than 90% by weight); with Stellaria media [10], 4 (herbicidal effect of not less than 70% by weight and less than 90% by weight). Besides, the “Herbicidal activity Glycine max” value in the data set with soybean (Glycine max) [5] was 0 (herbicidal effect of not less than 0% by weight and less than 10% by weight); in the data set with soybean (Glycine max) [11] it was 0 (herbicidal effect of not less than 0% by weight and less than 10% by weight). Moreover, the “Herbicidal activity Triticum aestivum” value was 0 (herbicidal effect of not less than 0% by weight and less than 10% by weight) in data set [6]; 0 (herbicidal effect of not less than 0% by weight and less than 10% by weight) in data set [12]. The “Herbicidal activity Echinochloa spp.” value in the data set on Echinochloa spp. was 3 (herbicidal effect of not less than 50% by weight and less than 70% by weight). Moreover, the “Herbicidal activity Ammannia multiflora” value in the data set with Ammannia multiflora was 3 (herbicidal effect of not less than 50% by weight and less than 70% by weight). For the same molecule, the “Herbicidal activity Monochoria vaginalis” value in the data set on Monochoria vaginalis is 3 (herbicidal effect of not less than 50% by weight and less than 70% by weight). Further, the “Herbicidal activity Scirpus juncoides” value in the data set on Scirpus juncoides is 3 (herbicidal effect of not less than 50% by weight and less than 70% by weight). The “Herbicidal activity Oryza sativa” value in data set [13] is 0 (herbicidal effect of not less than 0% by weight and less than 10% by weight).
Consider `COC=C(Cn1nc(-c2ccccc2)cc1SC)C(=O)OC` [Compound 37], for which the “Herbicidal activity Chenopodium album” value is 5 (herbicidal effect of not less than 90% by weight) in the data set on Chenopodium album [1]; 4 (herbicidal effect of not less than 70% by weight and less than 90% by weight) in the data set on Chenopodium album [7]. For the same molecule, the “Herbicidal activity Digitaria adscendens” value in the data set on Digitaria adscendens [2] was 4 (herbicidal effect of not less than 70% by weight and less than 90% by weight); with Digitaria adscendens [8], 5 (herbicidal effect of not less than 90% by weight). Also, the “Herbicidal activity Setaria viridis” value is 4 (herbicidal effect of not less than 70% by weight and less than 90% by weight) in the data set on Setaria viridis [3]; 5 (herbicidal effect of not less than 90% by weight) with Setaria viridis [9]. In addition, the “Herbicidal activity Stellaria media” value in the data set on Stellaria media [4] and in the data set with Stellaria media [10] was 5 (herbicidal effect of not less than 90% by weight) each time. Moreover, the “Herbicidal activity Glycine max” value in the data set with soybean (Glycine max) [5] was 0 (herbicidal effect of not less than 0% by weight and less than 10% by weight); with soybean (Glycine max) [11] it was 0 (herbicidal effect of not less than 0% by weight and less than 10% by weight). For the same molecule, the “Herbicidal activity Triticum aestivum” value is 0 (herbicidal effect of not less than 0% by weight and less than 10% by weight) in data set [6]; 0 (herbicidal effect of not less than 0% by weight and less than 10% by weight) in [12]. Moreover, the “Herbicidal activity Echinochloa spp.” value in the data set on Echinochloa spp. was 3 (herbicidal effect of not less than 50% by weight and less than 70% by weight). Besides, the “Herbicidal activity Ammannia multiflora” value in the data set on Ammannia multiflora was 3 (herbicidal effect of not less than 50% by weight and less than 70% by weight). In the data set with Monochoria vaginalis, the “Herbicidal activity Monochoria vaginalis” value is 3 (herbicidal effect of not less than 50% by weight and less than 70% by weight). For the same molecule, the “Herbicidal activity Scirpus juncoides” value in the data set on Scirpus juncoides was 3 (herbicidal effect of not less than 50% by weight and less than 70% by weight). For the same molecule, the “Herbicidal activity Oryza sativa” value in [13] is 0 (herbicidal effect of not less than 0% by weight and less than 10% by weight).

The values above are taken from US6809065B2, “Herbicide containing substituted pyrazole derivative as active ingredient” (SDS Biotech K.K., priority 2001, dated 2004).
